SMILES strings stand for the structures.

For one assay, the system named is scalp hair. Kind of assay: Hair shedding: hairs removed with brush, 4-day protocol (Example 5). It is filed as in vivo, human. An excerpt: Patients: Fifteen female subjects, ages 18-40, were included in the study. Subjects were recruited based on their frequent use of traumatic hair care practices, such as, tight braids, head scarves, ponytails, extensions, hair rollers, hair weaves and heated styling appliances such as blow dryers, flat irons, heat setters and curling irons. Subjects with uncontrolled hypertension, that were pregnant or breastfeeding, had been diagnosed with pattern hair loss or with other hair loss in conjunction with female pattern hair loss were excluded from the study. […] Piloerection and blanching were visible after 30 minutes; the effect lasted for approximately 2-3 hours.
Hair Shedding: To measure hair loss during cosmetic procedures, a 4-day protocol was designed. On the first day patients were instructed to wash their hair and use styling products and procedures as they normally would. On the second day, patients were instructed not to wash their hair and to apply 0.5 mL of a placebo solution, containing a vehicle only, on the frontal area of the scalp in an 8×10 cm2 target area. Patients were instructed to wait 45 minutes, after which, they brushed their hair 20 times from the front of the scalp to the bottom of head using a new brush. After the procedure, the brushes were sealed in a plastic bag. […] After each clinical procedure, the investigator counted the hairs collected on each brush. […]

A further assay deals with scalp hair follicles. Kind of assay: Epilation force measured with trichotillometer (Example 5). It is filed as in vivo, human. Conditions: average of 10 subjects. On the procedure:
To evaluate the effect of a topically applied α1-AR agonist on the force required to pluck hairs from the scalp, a hand-held spring dynamometer, or “trichotillometer” was used (8). The trichotillometer records the maximum force threshold, in grams, required to pluck a single hair from the scalp; the performance and statistical variance of the instrument have been reported previously (8-10). Force measurements were performed using the trichotillometer on 10 subjects. The frontal area of scalp was divided into two 8×10 cm2 areas. On the right side 0.5 mL of a placebo vehicle was applied. […] After 45 minutes, ten hairs were plucked from each of the target areas with the trichotillometer.

For the compound `CNC[C@H](O)c1cccc(O)c1` [phenylephrine], the “subjects with reduced shedding compared to placebo” value in the assay on scalp hair (15 female subjects, blinded study) is 80%. Further, in the assay with scalp hair (average of 15 subjects), the “AVERAGE reduction in hair loss vs placebo” value is “approximately 42%”. Besides, the “AVERAGE increase of epilation force threshold vs placebo” value in the assay with scalp hair follicles was “approximately 172%”.
